Values joined by “and” are separate entries in the source; they are usually repeats but may differ in a detail not shown here. Equal values may be shown once. Inconclusive results and toxic doses are left out. Rule for the calls: active = survival T/C of 150% or more; inactive = T/C below 125% in these data.
Test system: CD2F1 mice, L1210 leukemia ip, survival T/C
Test: NCI In Vivo Anticancer Drug Screen. Data for tumor model L1210 Leukemia (intraperitoneal) in CD2F1 (CDF1) mice
Details: higher = longer survival
Outline: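 Activity against a transplanted murine tumor was judged by comparing the compound group with a vehicle group. The outcome in the treated animals was divided by that in the controls.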

[1] = endpoint: mean survival time, dose: 25.0 mg/kg/injection, schedule: Q01DX001 (ip), vehicle: other
[2] = endpoint: mean survival time, dose: 50.0 mg/kg/injection, schedule: Q01DX001 (ip), vehicle: other
[3] = endpoint: mean survival time, dose: 100.0 mg/kg/injection, schedule: Q01DX001 (ip), vehicle: other
[4] = endpoint: mean survival time, dose: 100.0 mg/kg/injection, schedule: Q04DX003 (ip), vehicle: saline with Tween-80
[5] = endpoint: mean survival time, dose: 200.0 mg/kg/injection, schedule: Q04DX003 (ip), vehicle: saline with Tween-80
[6] = endpoint: mean survival time, dose: 400.0 mg/kg/injection, schedule: Q04DX003 (ip), vehicle: saline with Tween-80
[7] = endpoint: mean survival time, dose: 12.5 mg/kg/injection, schedule: Q04DX002 (ip), vehicle: saline with Tween-80
[8] = endpoint: mean survival time, dose: 25.0 mg/kg/injection, schedule: Q04DX002 (ip), vehicle: saline with Tween-80
[9] = endpoint: mean survival time, dose: 50.0 mg/kg/injection, schedule: Q04DX002 (ip), vehicle: saline with Tween-80
[10] = endpoint: mean survival time, dose: 100.0 mg/kg/injection, schedule: Q01DX009 (ip), vehicle: saline
[11] = endpoint: mean survival time, dose: 100.0 mg/kg/injection, schedule: Q01DX009 (ip), vehicle: saline with Tween-80
[12] = endpoint: mean survival time, dose: 200.0 mg/kg/injection, schedule: Q01DX009 (ip), vehicle: saline with Tween-80
[13] = endpoint: mean survival time, dose: 400.0 mg/kg/injection, schedule: Q01DX009 (ip), vehicle: saline with Tween-80

Measured: T/C

CCN(CC)[S+](C)(=O)/C=C(\[O-])Nc1ccccc1 (centres undefined)
inactive: [1] 103 % of control | [2] 94 % of control | [3] 90 % of control

COC(=O)C1(C)CCCC2(C)C1CCC13C=C(C(C)C)C(CC1C(=O)O)CC23 (centres undefined)
inactive: [4] 97 % of control | [5] 101 % of control | [6] 93 % of control

O=[N+]([O-])c1c(Cl)cc(Cl)c(-c2c(Cl)cc(Cl)c([N+](=O)[O-])c2Cl)c1Cl
inactive: endpoint: mean survival time, dose: 12.5 mg/kg/injection, schedule: Q01DX009 (ip), vehicle: water 97 % of control | endpoint: mean survival time, dose: 25.0 mg/kg/injection, schedule: Q01DX009 (ip), vehicle: water 100 % of control | endpoint: mean survival time, dose: 50.0 mg/kg/injection, schedule: Q01DX009 (ip), vehicle: water 94 % of control | endpoint: mean survival time, dose: 100.0 mg/kg/injection, schedule: Q01DX009 (ip), vehicle: water 95 % of control | endpoint: mean survival time, dose: 200.0 mg/kg/injection, schedule: Q01DX009 (ip), vehicle: water 94 % of control

CC(C(C(=O)O)S(=O)(=O)O)C(C(=O)O)S(=O)(=O)O (centres undefined)
inactive: endpoint: mean survival time, dose: 12.5 mg/kg/injection, schedule: Q01DX001 (ip), vehicle: other 91 % of control | [1] 95 % of control | [2] 98 % of control

CC(=O)OC(CCl)C(Cl)CCl (centres undefined)
inactive: [7] 103 % of control | [8] 106 % of control | [9] 92 % of control | endpoint: mean survival time, dose: 100.0 mg/kg/injection, schedule: Q01DX001 (ip), vehicle: saline sonified 95 % of control | endpoint: mean survival time, dose: 200.0 mg/kg/injection, schedule: Q01DX001 (ip), vehicle: saline sonified 95 % of control | endpoint: mean survival time, dose: 400.0 mg/kg/injection, schedule: Q01DX001 (ip), vehicle: saline sonified 108 % of control

CC1CC2OC(=O)C(O)(CO)C2CC2(C)C(=O)C=CC12 (centres undefined)
inactive: endpoint: mean survival time, dose: 25.0 mg/kg/injection, schedule: Q04DX002 (ip), vehicle: saline 102 % of control | endpoint: mean survival time, dose: 50.0 mg/kg/injection, schedule: Q04DX002 (ip), vehicle: saline 107 % of control

C/C(=N/O)C1=C(O)C(Cc2ccccc2)NC1=O (centres undefined)
inactive: [7] 100 % of control | [8] 121 % of control | [9] 103 % of control

C=CCOc1c(C)cc(C(C)(C)c2cc(C)c(OCC=C)c(C)c2)cc1C
inactive: [1] 104 % of control | [2] 103 % of control | [3] 94 % of control and 97 % of control | endpoint: mean survival time, dose: 400.0 mg/kg/injection, schedule: Q01DX001 (ip), vehicle: other 96 % of control

CC(=O)Oc1ccc2c(c1)C(=O)CCC=C2
inactive: endpoint: mean survival time, dose: 12.5 mg/kg/injection, schedule: Q01DX009 (ip), vehicle: other 103 % of control | endpoint: mean survival time, dose: 25.0 mg/kg/injection, schedule: Q01DX009 (ip), vehicle: other 106 % of control | endpoint: mean survival time, dose: 50.0 mg/kg/injection, schedule: Q01DX009 (ip), vehicle: other 108 % of control

CCCCCC(O)CCCCC
inactive: [4] 98 % of control | [5] 94 % of control | [6] 98 % of control

CCCCCCCCCCCC(=O)N(C)CCS(=O)(=O)O
inactive: [10] 103 % of control | endpoint: mean survival time, dose: 200.0 mg/kg/injection, schedule: Q01DX009 (ip), vehicle: saline 101 % of control | endpoint: mean survival time, dose: 400.0 mg/kg/injection, schedule: Q01DX009 (ip), vehicle: saline 109 % of control

Cc1ccc(C(=O)c2ccccc2C(=O)O)cc1O
inactive: [4] 98 % of control | [5] 101 % of control | [6] 106 % of control

[Cl][Pt+2][Cl].[NH-]C1CC1.[NH2-]
inactive: endpoint: mean survival time, dose: 0.39 mg/kg/injection, schedule: Q04DX003 (ip), vehicle: saline 101 % of control | endpoint: mean survival time, dose: 0.78 mg/kg/injection, schedule: Q04DX003 (ip), vehicle: saline 103 % of control and 104 % of control | endpoint: mean survival time, dose: 1.56 mg/kg/injection, schedule: Q04DX003 (ip), vehicle: saline 121 % of control and 108 % of control | endpoint: mean survival time, dose: 3.12 mg/kg/injection, schedule: Q04DX003 (ip), vehicle: saline with Tween-80 124 % of control

CC1=C[S+](c2ccccc2)c2cccc3cc4ccccc4c1c23 (centres undefined)
inactive: endpoint: mean survival time, dose: 5.0 mg/kg/injection, schedule: Q01DX001 (ip), vehicle: saline with Tween-80 111 % of control | endpoint: mean survival time, dose: 10.0 mg/kg/injection, schedule: Q01DX001 (ip), vehicle: saline with Tween-80 106 % of control | endpoint: median survival time, dose: 0.06 mg/kg/injection, schedule: Q01DX009 (ip), vehicle: saline with Tween-80 105 % of control | endpoint: median survival time, dose: 0.12 mg/kg/injection, schedule: Q01DX009 (ip), vehicle: saline with Tween-80 105 % of control | endpoint: median survival time, dose: 0.25 mg/kg/injection, schedule: Q01DX009 (ip), vehicle: saline with Tween-80 107 % of control | endpoint: median survival time, dose: 0.5 mg/kg/injection, schedule: Q01DX009 (ip), vehicle: saline with Tween-80 109 % of control | endpoint: median survival time, dose: 1.0 mg/kg/injection, schedule: Q01DX009 (ip), vehicle: saline with Tween-80 109 % of control | endpoint: median survival time, dose: 2.0 mg/kg/injection, schedule: Q01DX009 (ip), vehicle: saline with Tween-80 115 % of control

OC(Cc1nc2ccccc2s1)(C(F)(F)F)C(F)(F)F
inactive: [11] 96 % of control | [4] 95 % of control | [12] 93 % of control | [5] 104 % of control | [13] 96 % of control | [6] 97 % of control

NC(=S)N/N=C/c1cc(Cl)c2nc(-c3ccccc3)ccc2c1
inactive: [4] 104 % of control | [5] 102 % of control | [6] 104 % of control

COc1ncnc2c1c(C#N)cn2C1OC(CO)C(O)C1O (centres undefined)
inactive: endpoint: mean survival time, dose: 6.25 mg/kg/injection, schedule: Q01DX009 (ip), vehicle: saline 117 % of control | endpoint: mean survival time, dose: 25.0 mg/kg/injection, schedule: Q01DX009 (ip), vehicle: saline 109 % of control | endpoint: mean survival time, dose: 50.0 mg/kg/injection, schedule: Q01DX009 (ip), vehicle: saline 124 % of control | [10] 91 % of control

CC1(O)CC2CCC1C2 (centres undefined)
inactive: endpoint: mean survival time, dose: 100.0 mg/kg/injection, schedule: Q04DX003 (ip), vehicle: saline 95 % of control | endpoint: mean survival time, dose: 200.0 mg/kg/injection, schedule: Q04DX003 (ip), vehicle: saline 90 % of control | endpoint: mean survival time, dose: 400.0 mg/kg/injection, schedule: Q04DX003 (ip), vehicle: saline 87 % of control

CCCCC(O)(c1ccccc1)C1CN(C(C)(C)C)C1c1ccccc1 (centres undefined)
inactive: endpoint: mean survival time, dose: 25.0 mg/kg/injection, schedule: Q01DX001 (ip), vehicle: saline with Tween-80 95 % of control | endpoint: mean survival time, dose: 50.0 mg/kg/injection, schedule: Q01DX001 (ip), vehicle: saline with Tween-80 91 % of control | endpoint: mean survival time, dose: 100.0 mg/kg/injection, schedule: Q01DX001 (ip), vehicle: saline with Tween-80 86 % of control

CC1(C(=O)O)OC12CCCCC2 (centres undefined)
inactive: [11] 107 % of control | [12] 108 % of control | [13] 108 % of control

Cc1nc(-c2ccccc2)[nH]c(=O)c1CCO
inactive: [4] 100 % of control | [5] 100 % of control | [6] 111 % of control

CC(O)C(O)C(O)C(O)CO (centres undefined) (tested in a mixture with another compound)
inactive: endpoint: mean survival time, dose: 75.0 mg/kg/injection, schedule: Q01DX001 (ip), vehicle: saline with Tween-80 87 % of control | endpoint: mean survival time, dose: 150.0 mg/kg/injection, schedule: Q01DX001 (ip), vehicle: saline with Tween-80 93 % of control | endpoint: mean survival time, dose: 300.0 mg/kg/injection, schedule: Q01DX001 (ip), vehicle: saline with Tween-80 86 % of control

CC(C)CN1CCOCC1
inactive: endpoint: mean survival time, dose: 50.0 mg/kg/injection, schedule: Q01DX009 (ip), vehicle: saline with Tween-80 95 % of control | [11] 97 % of control | [4] 107 % of control | [5] 98 % of control

OC(CN1CCCCC1)c1ccncc1 (centres undefined)
inactive: endpoint: mean survival time, dose: 75.0 mg/kg/injection, schedule: Q01DX001 (ip), vehicle: saline 95 % of control | endpoint: mean survival time, dose: 150.0 mg/kg/injection, schedule: Q01DX001 (ip), vehicle: saline 95 % of control | endpoint: mean survival time, dose: 300.0 mg/kg/injection, schedule: Q01DX001 (ip), vehicle: saline 95 % of control

C/C=C(\C)C(=O)OC1C(C)=C2C(C1OC(=O)CCCCC)C(C)(OC(C)=O)CC(OC(=O)CCC)C1(O)C2OC(=O)C1(C)O (centres undefined)
inactive: endpoint: median survival time, dose: 0.5 mg/kg/injection, schedule: Q01DX005 (ip), vehicle: Klucel (hydroxypropylcellulose) (HPC) 113 % of control | endpoint: median survival time, dose: 1.0 mg/kg/injection, schedule: Q01DX005 (ip), vehicle: Klucel (hydroxypropylcellulose) (HPC) 118 % of control | endpoint: median survival time, dose: 2.0 mg/kg/injection, schedule: Q01DX005 (ip), vehicle: Klucel (hydroxypropylcellulose) (HPC) 122 % of control

O=C(NCO)c1ccccc1
inactive: endpoint: mean survival time, dose: 50.0 mg/kg/injection, schedule: Q01DX009 (ip), vehicle: Klucel (hydroxypropylcellulose) (HPC) 96 % of control | endpoint: mean survival time, dose: 100.0 mg/kg/injection, schedule: Q01DX009 (ip), vehicle: Klucel (hydroxypropylcellulose) (HPC) 96 % of control | endpoint: mean survival time, dose: 200.0 mg/kg/injection, schedule: Q01DX009 (ip), vehicle: Klucel (hydroxypropylcellulose) (HPC) 96 % of control
